# Data: patent US12661404B2, “Methods and materials for tissue ablation” (Mayo Foundation for Medical Education and Research, priority 2020, dated 2026)
# Where two headings read alike, the source gives them in different places.
# Key:
# [1] = tested on: human hepatocellular carcinoma (Hep-G2) cells; conditions: Hep-G2, 24 hours incubation, WST-1
# Description: HepG2 human liver cancer cell line (ATCC CRL10741; American Type Culture Collection, Manassas, VA, USA) were cultured in 75 cm^2 flasks using growth medium consisting of low glucose Dulbecco's Modified Eagle Medium (DMEM, ThermoFisher) and 10% heat-inactivated bovine serum that was supplemented with 100 IU penicillin and 10 μg/mL streptomycin (Thermo Fisher Scientific). […] The anticancer activity of LATTE on HepG2 was determined using WST-1 reagent (2-(4-Iodophenyl)-3-(4-nitrophenyl)-5-(2,4-disulfophenyl)-2H-tetrazolium sodium) assay as an indication of viability/cytotoxicity treatment. WST-1 viability assay is based on the reduction of tetrazolium salt, WST-1 to an insoluble formazan dye by electron transport across the plasma membrane in viable cells that alter the optical density of the media. […] Cell viability was calculated relative to control wells that received the growth medium alone.
# All reported values are the means of three replicate experiments with each study having 8 wells per dose level. Plots of the log concentration versus fractional viability for each drug were generated for each study.
# VX2 liver tumor = tested on: VX2 liver tumor
# Description: To visualize normal liver parenchyma on CT imaging, rats received a bolus injection of 400 μL of the alkaline earth metal-based nanoparticle suspension, Exitron nano 12000 (Miltenyi Biotec, Auburn, CA) two hours prior to micro-CT scanning. Rats were anesthetized using inhalation of 2-3% isoflurane in 100% 02 at a constant flow rate of 2 L/minute and placed on a cassette equipped with a warming system and continuous gas exchange and integrated real-time motion detection camera. Fixed rat tissues were placed and immobilized using styrofoam beads inside a humidified plastic chamber. […] The 3D image stacks were reconstructed using NRecon software and InstaRecon CBR Server (version: 1.7.4.6, Bruker, Kontich, Belgium) following adjustment of random movements, beam-hardening correction, and ring artifact reduction and smoothing. 3D volume rendering was visualized using CTVox software (version: 3.3. 0 r1383, Bruker, Kontich, Belgium). The stacks were virtually rotated and axially oriented to yield transverse projections of select volume of interest (VOI) using Data Viewer software (Bruker, Kontich, Belgium).
# cardiac muscle = conditions: 1 cc with ICG, 1 hour
# Description: FIGS. 14A-14B. Effect of an ablation agent on pig heart tissue. FIG. 14A. In a living Yorkshire pig weighing 50-55 kg, a syringe connected to a 21 gauge 7 cm needle was guided through the skin into the myocardium using hand-held ultrasound guidance. […] FIG. 14B.
# Pig heart tissue septum received 1 cc injection of LATTE mixture with ICG under ultrasound guidance. Cardiac muscle was removed after 1 hour for near-infrared imaging (NIRF) and histology was performed.
# subcutaneous fat tissue = conditions: 25% LATTE mixture subcutaneous
# Description: Additional experiments were performed on explanted fat tissue obtained from the groin area from pig in a petri dish submersed in saline (FIG. 10).
# [2] = tested on: freshly resected human tumors; conditions: 25%-LATTE mixed with ICG, 24 hours at 37° C., 12 tumors
# Description: The fluorescent intensity and diffusion area were calculated using similar parameters for all tissues. […] LATTE was able to ablate a variety of highly malignant human tumors.
# Explanted human cancer tissues were collected following surgical resection and placed in RPMI medium for preservation. […] Near-infrared fluorescent imaging (NIRF) was performed at 5 minutes after injection. […] Tissues were transected to reveal the ablated zone were fixed in 10% buffered formalin, embedded in paraffin, then sectioned and subsequently stained with hematoxylin and eosin for microscopic evaluation.
# pig blood = tested on: pig blood
# Description: (§1) The effect of IL on coagulation and cell death in blood was evaluated in vitro. To evaluate the effect of cell death along the margins of the ablation zone, specifically on the effect of IL on inflammatory cells, blood treated with low concentrations of IL was used to simulate concentrations along the ablation margins. To analyze the effect of the ionic liquid on blood coagulation, RBC hemolysis, and immune cells, analyses including rheometry, hemolyses assay, complete blood counts were performed on blood smears following incubation of pig blood aliquots with various concentrations of IL.
# pig blood cells = tested on: pig blood cells
# Description: as §1
# Description for pig liver: Ultrasound-guided injection of LATTE solution was performed in euthanized pigs or rabbits. […] Ultrasonography was used to visualize the left liver lobe parenchyma using a high-frequency transducer (A 9-MHz multi-frequency linear probe, ACUSON 52000, Siemens, Germany). The access site position was marked on the skin and a scalpel blade was used to create a small incision in the center of the marked line. The access needle was advanced through the skin incision in front of the transducer parallel its long axis until it reached the desired location then the LATTE mixture was slowly injected over one minute. At 10 minutes post-injection, the liver tissue was harvested and subjected to near-infrared fluorescent imaging (NIRF) (IVIS 200, PerkinElmer, Inc. Waltham, MA) followed by fixation and histologic evaluation.
# Injection Images were acquired at 0 and 90 minutes after injection. Pig livers were scanned with a 3T MAGNETOM Skyra MRI (Siemens Healthcare, Erlangen, Germany) with an 18 channel anterior coil in combination with a 32 channel posterior spine coil. […] Scans were acquired at 0 and 90 minutes after injection. Segmentation and volume calculations were acquired using the Materialise 3-Matic and Mimics 3D image processing software (Materialise, Belgium).
substance,measurement,setting,value
choline-geranate [LATTE],"effective dose (EC50), fractional cell viability",[1],0.19%
same,tumor histology,VX2 liver tumor; compared to saline injected tumors,extensive necrosis
same,"tumor perfusion (Doppler, laser speckle)",VX2 liver tumor; following injection,markedly diminished perfusion
same,cardiac muscle histology at injected site,cardiac muscle,marked ablation of the cardiac myofibers
same,adipocyte ablation in treated zone (histology),subcutaneous fat tissue,complete ablation of the adipocytes
same,tumor tissue histology,[2],marked tissue destruction
same,liver histology,pig liver; 2 mL of 25% LATTE mixed with ICG,total destruction of tissue architecture
same,ablation zone size,pig liver; transcutaneous injection in pigs,up to 4 cm
same,blood coagulation initiation lag time (tlag),pig blood; 0.78% IL,slight increase in lag time
same,decrease in storage modulus (G′) at 30 minutes,pig blood; 0.78% IL,~20%
same,blood coagulation initiation lag time (tlag),pig blood; 1.56 wt % IL,significantly extended lag time
same,drop in storage modulus (G′) at 30 minutes,pig blood; 1.56 wt % IL,95%
same,coagulation during 30 minutes testing period,pig blood; 3.12 wt % IL,failed to coagulate
same,decrease in storage modulus (G′) at 30 minutes,pig blood; 3.12 wt % IL,100 wt %
same,red blood cells (RBC) total count,"pig blood cells; 0.78, 1.56, 3.12 wt % IL",concentration dependent decrease
same,white blood cells (WBC) total count,"pig blood cells; 0.78, 1.56, 3.12 wt % IL",concentration dependent decrease
same,lymphocyte count,"pig blood cells; 0.78, 1.56, 3.12 wt % IL, compared to control",no change in lymphocyte count
same,hemolysis test,pig blood cells; 0.78-25 wt % IL,significant increase in hemolysis
same,hemolysis on stained blood smears,pig blood cells; 3.12 wt % IL,complete hemolysis
